What was measured:
Format in all cases: in vivo
[1] = system: Italian ryegrass (Lolium multiflorum); assay: Test A preemergence, visual plant response rating; settings: for Ryegrass, Italian plant response rating: 125 g ai/ha, preemergence, 0 to 100 scale, 0 no effect, 100 complete control; for Ryegrass, Italian plant response rating (0 to 100 scale): 500 g ai/ha Preemergence, approx. 10 days
Summary of the method: (§1)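 Greenhouse pot test in loam–sand soil mix: compound in a surfactant-containing non-phytotoxic solvent applied preemergence (directed soil spray) or postemergence (one- to two-leaf plants, 2–10 cm). Injury scored visually after ~10 days, 0–100.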

[2] = system: barnyardgrass (Echinochloa crus-galli); assay: Test A preemergence, visual plant response rating; settings: for Barnyardgrass plant response rating: 125 g ai/ha, preemergence, 0 to 100 scale, 0 no effect, 100 complete control; for Barnyardgrass plant response rating (0 to 100 scale): 500 g ai/ha Preemergence, approx. 10 days
Summary of the method: as §1

[3] = system: foxtail, giant (giant foxtail, Setaria faberii); assay: Test A preemergence, visual plant response rating; settings: for Foxtail, Giant plant response rating: 125 g ai/ha, preemergence, 0 to 100 scale, 0 no effect, 100 complete control; for Foxtail, Giant plant response rating (0 to 100 scale): 500 g ai/ha Preemergence, approx. 10 days
Summary of the method: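 Preemergence: seeds in loam/sand blend given directed soil spray of compound in non-phytotoxic solvent with surfactant. Postemergence: plants 2–10 cm, one- to two-leaf stage, sprayed with same formulation. Visual injury rated vs untreated controls after ~10 days in greenhouse, 0 (no effect) to 100 (complete control).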

kochia (Kochia scoparia) [4] = assay: Test A preemergence, visual plant response rating; settings: for Kochia plant response rating: 125 g ai/ha, preemergence, 0 to 100 scale, 0 no effect, 100 complete control; for Kochia plant response rating (0 to 100 scale): 500 g ai/ha Preemergence, approx. 10 days
Summary of the method: as §1

[5] = system: pigweed (Amaranthus retroflexus); assay: Test A preemergence, visual plant response rating; settings: for Pigweed plant response rating: 125 g ai/ha, preemergence, 0 to 100 scale, 0 no effect, 100 complete control; for Pigweed plant response rating (0 to 100 scale): 500 g ai/ha Preemergence, approx. 10 days
Summary of the method: as §1

[6] = system: ragweed (common ragweed, Ambrosia elatior); assay: Test A preemergence, visual plant response rating; settings: for Ragweed plant response rating: 125 g ai/ha, preemergence, 0 to 100 scale, 0 no effect, 100 complete control; for Ragweed plant response rating (0 to 100 scale): 500 g ai/ha Preemergence, approx. 10 days
Summary of the method: as §1

[7] = system: Italian ryegrass (Lolium multiflorum); assay: Test A postemergence, visual plant response rating; settings: for Ryegrass, Italian plant response rating: 125 g ai/ha, 0 to 100 scale (0 no effect, 100 complete control)
Summary of the method: as §1

[8] = system: barnyardgrass (Echinochloa crus-galli); assay: Test A postemergence, visual plant response rating; settings: for Barnyardgrass plant response rating (0 to 100 scale): 500 g ai/ha, postemergence, 0 is no effect, 100 is complete control; for Barnyardgrass plant response rating: Postemergence, 125 g ai/ha, 0 to 100 scale (0 no effect, 100 complete control)
Summary of the method: as §1

[9] = system: blackgrass (Alopecurus myosuroides); assay: Test A postemergence, visual plant response rating; settings: for Blackgrass plant response rating (0 to 100 scale): 500 g ai/ha, postemergence, 0 is no effect, 100 is complete control; for Blackgrass plant response rating: Postemergence, 125 g ai/ha, 0 to 100 scale (0 no effect, 100 complete control)
Summary of the method: as §1

corn (Zea mays) = assay: Test A postemergence, visual plant response rating; settings: for Corn plant response rating (0 to 100 scale): 500 g ai/ha, postemergence, 0 is no effect, 100 is complete control; for Corn plant response rating: Postemergence, 125 g ai/ha, 0 to 100 scale (0 no effect, 100 complete control)
Summary of the method: as §1

[10] = system: foxtail, giant (giant foxtail, Setaria faberii); assay: Test A postemergence, visual plant response rating; settings: for Foxtail, Giant plant response rating (0 to 100 scale): 500 g ai/ha, postemergence, 0 is no effect, 100 is complete control; for Foxtail, Giant plant response rating: Postemergence, 125 g ai/ha, 0 to 100 scale (0 no effect, 100 complete control)
Summary of the method: as §1

[11] = system: galium (catchweed bedstraw, Galium aparine); assay: Test A postemergence, visual plant response rating; settings: for Galium plant response rating (0 to 100 scale): 500 g ai/ha, postemergence, 0 is no effect, 100 is complete control; for Galium plant response rating: Postemergence, 125 g ai/ha, 0 to 100 scale (0 no effect, 100 complete control)
Summary of the method: as §1

kochia (Kochia scoparia) [12] = assay: Test A postemergence, visual plant response rating; settings: for Kochia plant response rating (0 to 100 scale): 500 g ai/ha, postemergence, 0 is no effect, 100 is complete control; for Kochia plant response rating: Postemergence, 125 g ai/ha, 0 to 100 scale (0 no effect, 100 complete control)
Summary of the method: as §1

[13] = system: pigweed (Amaranthus retroflexus); assay: Test A postemergence, visual plant response rating; settings: for Pigweed plant response rating (0 to 100 scale): 500 g ai/ha, postemergence, 0 is no effect, 100 is complete control; for Pigweed plant response rating: Postemergence, 125 g ai/ha, 0 to 100 scale (0 no effect, 100 complete control)
Summary of the method: as §1

[14] = system: ragweed (common ragweed, Ambrosia elatior); assay: Test A postemergence, visual plant response rating; settings: for Ragweed plant response rating (0 to 100 scale): 500 g ai/ha, postemergence, 0 is no effect, 100 is complete control; for Ragweed plant response rating: Postemergence, 125 g ai/ha, 0 to 100 scale (0 no effect, 100 complete control)
Summary of the method: as §1

[15] = system: wheat (Triticum aestivum); assay: Test A postemergence, visual plant response rating; settings: for Wheat plant response rating: 0 to 100 scale (0 no effect, 100 complete control)
Summary of the method: as §1

[16] = system: barnyardgrass (Echinochloa crus-galli); assay: Test B flooded paddy test, visual plant response rating; settings: 250 g ai/ha, Flood, applied to paddy water, 2-leaf stage, evaluated after 13 to 15 days
Summary of the method: (§2)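 Flooded-pot treatment: water 3 cm over the soil, chemical delivered into that water, depth unchanged for the duration. Assessed by eye versus controls following 13–15 greenhouse days; plants were at 2 leaves when dosed.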

[17] = system: ducksalad (Heteranhera limosa); assay: as above; settings: 250 g ai/ha, Flood, applied to paddy water, 2-leaf stage, evaluated after 13 to 15 days
Summary of the method: as §2

rice (Oryza sativa) = assay: as above; settings: 250 g ai/ha, Flood, applied to paddy water, 2-leaf stage, evaluated after 13 to 15 days
Summary of the method: as §2

[18] = system: sedge, umbrella (small-flower umbrella sedge, Cyperus difformis); assay: as above; settings: 250 g ai/ha, Flood, applied to paddy water, 2-leaf stage, evaluated after 13 to 15 days
Summary of the method: as §2

[19] = 500 g ai/ha, postemergence, 0 is no effect, 100 is complete control

SMILES	Ryegrass, Italian plant response rating [1]	Ryegrass, Italian plant response rating (0 to 100 scale) [1]	Barnyardgrass plant response rating [2]	Barnyardgrass plant response rating (0 to 100 scale) [2]	Foxtail, Giant plant response rating [3]	Foxtail, Giant plant response rating (0 to 100 scale) [3]	Kochia plant response rating (kochia (Kochia scoparia) [4])	Kochia plant response rating (0 to 100 scale) (kochia (Kochia scoparia) [4])	Pigweed plant response rating [5]	Pigweed plant response rating (0 to 100 scale) [5]	Ragweed plant response rating [6]	Ragweed plant response rating (0 to 100 scale) [6]	Ryegrass, Italian plant response rating (0 to 100 scale) [7, 19]	Barnyardgrass plant response rating (0 to 100 scale) [8]	Barnyardgrass plant response rating [8]	Blackgrass plant response rating (0 to 100 scale) [9]	Blackgrass plant response rating [9]	Corn plant response rating (0 to 100 scale) (corn (Zea mays))	Corn plant response rating (corn (Zea mays))	Foxtail, Giant plant response rating (0 to 100 scale) [10]	other results
CON=C(c1cc(Cl)ccc1C)c1c(O)c(C)nn(C)c1=O [Compound 65]	0	30	20	50	20	40	0	30	50	100	20	100	90	40	30	30	10	0	0	70	Ryegrass, Italian plant response rating ([7]; Postemergence): 50; Foxtail, Giant plant response rating [10]: 30; Galium plant response rating (0 to 100 scale) [11]: 90; Galium plant response rating [11]: 70; Kochia plant response rating (0 to 100 scale) (kochia (Kochia scoparia) [12]): 80; Kochia plant response rating (kochia (Kochia scoparia) [12]): 70; Pigweed plant response rating (0 to 100 scale) [13]: 90; Pigweed plant response rating [13]: 90; Ragweed plant response rating (0 to 100 scale) [14]: 80; Ragweed plant response rating [14]: 60; Wheat plant response rating (0 to 100 scale) [15, 19]: 20; Wheat plant response rating ([15]; Postemergence, 125 g ai/ha): 0; Plant response rating, Barnyardgrass (0 to 100 scale, 0 is no effect, 100 is complete control) [16]: 0; Plant response rating, Ducksalad (0 to 100 scale, 0 is no effect, 100 is complete control) [17]: 0; Plant response rating, Rice (0 to 100 scale, 0 is no effect, 100 is complete control) (rice (Oryza sativa)): 0; Plant response rating, Sedge, Umbrella (0 to 100 scale, 0 is no effect, 100 is complete control) [18]: 0
CO/N=C(\c1cccc(C(F)(F)F)c1)c1c(O)c(C)nn(C)c1=O [Compound 71]	0	20	0	0	0	0	0	0	20	60	10	30	40	30	10	50	20	10	0	20	Ryegrass, Italian plant response rating ([7]; Postemergence): 40; Foxtail, Giant plant response rating [10]: 10; Galium plant response rating (0 to 100 scale) [11]: 80; Galium plant response rating [11]: 60; Kochia plant response rating (0 to 100 scale) (kochia (Kochia scoparia) [12]): 60; Kochia plant response rating (kochia (Kochia scoparia) [12]): 50; Pigweed plant response rating (0 to 100 scale) [13]: 70; Pigweed plant response rating [13]: 60; Ragweed plant response rating (0 to 100 scale) [14]: 60; Ragweed plant response rating [14]: 20; Wheat plant response rating (0 to 100 scale) [15, 19]: 40; Wheat plant response rating ([15]; Postemergence, 125 g ai/ha): 20; Plant response rating, Barnyardgrass (0 to 100 scale, 0 is no effect, 100 is complete control) [16]: 0; Plant response rating, Ducksalad (0 to 100 scale, 0 is no effect, 100 is complete control) [17]: 0; Plant response rating, Rice (0 to 100 scale, 0 is no effect, 100 is complete control) (rice (Oryza sativa)): 10; Plant response rating, Sedge, Umbrella (0 to 100 scale, 0 is no effect, 100 is complete control) [18]: 0
CON=C(c1ccc(C)s1)c1c(O)c(C)nn(C)c1=O (mixture of isomers) [Compound 144]	0	0	0	0	0	0	0	0	0	0	0	0	0	0	0	0	0	0	0	0	Ryegrass, Italian plant response rating (0 to 100 scale) ([7]; Postemergence, rate not given, approx. 10 days): 0; Foxtail, Giant plant response rating [10]: 0; Galium plant response rating (0 to 100 scale) [11]: 30; Galium plant response rating [11]: 0; Kochia plant response rating (0 to 100 scale) (kochia (Kochia scoparia) [12]): 0; Kochia plant response rating (kochia (Kochia scoparia) [12]): 0; Pigweed plant response rating (0 to 100 scale) [13]: 10; Pigweed plant response rating [13]: 0; Ragweed plant response rating (0 to 100 scale) [14]: 30; Ragweed plant response rating [14]: 0; Wheat plant response rating ([15]; Postemergence, 500 g ai/ha): 0; Wheat plant response rating (0 to 100 scale) ([15]; Postemergence, approx. 10 days): 0; Plant response rating, Barnyardgrass (0 to 100 scale, 0 is no effect, 100 is complete control) [16]: 0; Plant response rating, Ducksalad (0 to 100 scale, 0 is no effect, 100 is complete control) [17]: 0; Plant response rating, Rice (0 to 100 scale, 0 is no effect, 100 is complete control) (rice (Oryza sativa)): 0; Plant response rating, Sedge, Umbrella (0 to 100 scale, 0 is no effect, 100 is complete control) [18]: 0

From patent US20210045385A1, “PYRIDAZINONE-SUBSTITUTED KETOXIMES AS HERBICIDES” (FMC Corporation, priority 2018, published 2021)
